In BindingDB's records for doi:10.1002/1098-2396(20010101)39:1 (Nih, 2001) one finds Ki data, which are given here for 17 compounds.

Values joined by “and” are separate entries in the source; they are usually repeats but may differ in a detail not shown here. Equal entries are not always repeated.

The target of experiment [1] is Sodium-dependent serotonin transporter (Rattus norvegicus, UniProt P31652).
The target of experiment [2] is Norepinephrine transporter (Rattus norvegicus, UniProt Q9JIA2).
The target in experiment [3] is Sodium-dependent dopamine transporter (Rattus norvegicus, UniProt P23977).
Chain of Sodium-dependent dopamine transporter (P23977 whole entry): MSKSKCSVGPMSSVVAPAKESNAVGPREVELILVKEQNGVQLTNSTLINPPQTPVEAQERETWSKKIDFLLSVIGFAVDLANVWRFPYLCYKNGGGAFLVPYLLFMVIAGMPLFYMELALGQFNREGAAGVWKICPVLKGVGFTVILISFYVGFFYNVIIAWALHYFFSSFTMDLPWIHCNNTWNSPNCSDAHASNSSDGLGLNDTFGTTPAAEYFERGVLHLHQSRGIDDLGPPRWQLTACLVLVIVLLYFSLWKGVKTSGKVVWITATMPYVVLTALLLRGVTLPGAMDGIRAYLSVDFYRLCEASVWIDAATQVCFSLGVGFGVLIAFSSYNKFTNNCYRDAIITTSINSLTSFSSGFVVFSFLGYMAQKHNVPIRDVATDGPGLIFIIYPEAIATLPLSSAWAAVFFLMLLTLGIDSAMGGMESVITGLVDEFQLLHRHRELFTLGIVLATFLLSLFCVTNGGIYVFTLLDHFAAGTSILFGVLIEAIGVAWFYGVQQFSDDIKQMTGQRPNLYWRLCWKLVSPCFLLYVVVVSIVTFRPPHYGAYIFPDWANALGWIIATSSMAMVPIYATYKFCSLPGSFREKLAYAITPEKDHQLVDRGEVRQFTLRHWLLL

Chain of Sodium-dependent serotonin transporter (P31652 whole entry): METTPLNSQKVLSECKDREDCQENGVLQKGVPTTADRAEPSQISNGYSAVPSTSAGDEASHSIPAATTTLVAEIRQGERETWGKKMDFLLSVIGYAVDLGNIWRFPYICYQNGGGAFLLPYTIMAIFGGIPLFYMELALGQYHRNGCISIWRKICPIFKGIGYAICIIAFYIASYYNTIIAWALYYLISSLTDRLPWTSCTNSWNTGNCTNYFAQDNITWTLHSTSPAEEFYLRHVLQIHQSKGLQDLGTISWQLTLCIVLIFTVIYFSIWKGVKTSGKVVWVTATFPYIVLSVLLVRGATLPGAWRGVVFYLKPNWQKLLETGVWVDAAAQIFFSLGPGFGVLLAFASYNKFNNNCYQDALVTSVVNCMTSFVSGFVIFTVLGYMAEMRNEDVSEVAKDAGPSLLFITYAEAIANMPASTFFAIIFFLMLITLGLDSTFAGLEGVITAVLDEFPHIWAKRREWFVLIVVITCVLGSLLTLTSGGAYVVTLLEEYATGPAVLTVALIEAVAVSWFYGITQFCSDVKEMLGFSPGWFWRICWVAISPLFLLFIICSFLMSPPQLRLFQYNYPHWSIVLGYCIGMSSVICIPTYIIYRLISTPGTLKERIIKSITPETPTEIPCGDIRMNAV

Turning to `CN1[C@H]2CC[C@@H]1[C@@H](C(=O)N1CCCC1)[C@@H](c1ccc(I)cc1)C2` [RTI-229], the inhibition constant (Ki) came to 362 nM in experiment [1] and 19.5 nM in experiment [2].

In the case of `NCCc1ccc(O)c(O)c1`, the Ki is 6490 nM in experiment [1] and 40.3 nM in experiment [2].

For `NCCc1ccc(O)cc1`, the Ki in experiment [3] was 106 nM; in experiment [1], 1560 nM; in experiment [2] it was 72.5 nM.

Consider `CC(C)(N)Cc1ccccc1` [2-methyl-1-phenylpropan-2-amine], for which the inhibition constant (Ki) is 1580 nM in experiment [3], above 10000 nM in experiment [1] and 244 nM in experiment [2].

`c1ccc(CCCN2CCN(CCOC(c3ccccc3)c3ccccc3)CC2)cc1` [GBR-12935]: in experiment [2], the affinity corresponds to a Ki of 277 nM.

The compound `C[C@H](N)Cc1ccccc1` [beta-aminopropylbenzene] came in with a Ki in experiment [2] of 38.9 nM.

On to `NCC(O)c1ccc(O)c(O)c1` (stereo not drawn) [Noradrenaline,(+)], for which the Ki is 357 nM in experiment [3], above 10000 nM in experiment [1] and 63.9 nM in experiment [2].

Turning to `NCCc1c[nH]c2ccc(O)cc12` [[3H]-5-HT], the Ki in experiment [3] was found to be 2700 nM; in experiment [2] it was 3010 nM.

Turning to `CC(C)(N)Cc1ccc(Cl)cc1` [CAS_461-78-9], the figures for the Ki in experiment [3], in experiment [1] and in experiment [2] were 3940 nM, 338 nM and 451 nM, respectively.

As for `NC1=NCC(c2ccccc2)O1` (stereo not drawn) [CAS_2207-50-3], the inhibitory constant (Ki) turned out to be 216 nM in experiment [3], 1240 nM in experiment [1] and 54.5 nM in experiment [2].

Consider `CN[C@@H](C)Cc1ccccc1` [METHAMPHETAMINE (+)], for which the inhibition constant Ki in experiment [2] was 48 nM and 234 nM.

In the case of `CN[C@@H](C)Cc1ccc2c(c1)OCO2` [DL-(3,4-Methylenedioxy)methamphetamine], the values for the inhibition constant (Ki) in experiment [3], in experiment [1] and in experiment [2] were 1570 nM, 238 nM and 462 nM, respectively.

Consider `O[C@]1(c2ccc(Cl)cc2)c2ccccc2C2=NCCN21` [Mazanor], for which the inhibition constant (Ki) is 25.9 nM in experiment [3], 272 nM in experiment [1] and 2.88 nM in experiment [2].

As to `COC(=O)C1C2CC[C@H](C[C@@H]1c1ccc(N)cc1)N2C` (stereo partly drawn) [(3S,8R)-3-(4-Amino-phenyl)-8-methyl-8-aza-bicyclo[3.2.1]octane-2-carboxylic acid methyl ester], affinity in experiment [3] was put at a Ki of 2.15 nM.

As for `CN[C@@H](C)[C@H](O)c1ccccc1` [Ephedrine,(-)], the values for the inhibitory constant (Ki) in experiment [3], in experiment [1] and in experiment [2] were 4400 nM, above 10000 nM and 225 nM, respectively.

As for `CCNC(C)Cc1cccc(C(F)(F)F)c1` (stereo not drawn) [NSC_3337], the Ki in experiment [3] is above 10000 nM.

Consider `COC(=O)[C@H]1[C@@H](c2ccc(I)cc2)C[C@@H]2CC[C@H]1N2C` [RTI 55, (exo,exo)-isomer, Iodine (125) labeled], for which the results for the inhibitory constant (Ki) in experiment [3], in experiment [1] and in experiment [2] were 0.83 nM, 1 nM and 5.89 nM, respectively.
